Experimental data as given in patent publication US11230526B1, “Cylcoalkenyl derivatives useful as agonists of the GPR120 and/or GPR40 receptors” (Janssen Pharmaceutica NV, priority 2018, dated 2022).

Columns and labels:
Human GPR120 short form = biological target: T1, Human GPR120 short form (Homo sapiens, UniProt Q5NUL3); test: Human GPR120 calcium flux assay, Procedure Calcium B (4200 cells/well); assay type: cell-based
T1 construct: expressed in transfected cells
T1 sequence (Q5NUL3 1-361): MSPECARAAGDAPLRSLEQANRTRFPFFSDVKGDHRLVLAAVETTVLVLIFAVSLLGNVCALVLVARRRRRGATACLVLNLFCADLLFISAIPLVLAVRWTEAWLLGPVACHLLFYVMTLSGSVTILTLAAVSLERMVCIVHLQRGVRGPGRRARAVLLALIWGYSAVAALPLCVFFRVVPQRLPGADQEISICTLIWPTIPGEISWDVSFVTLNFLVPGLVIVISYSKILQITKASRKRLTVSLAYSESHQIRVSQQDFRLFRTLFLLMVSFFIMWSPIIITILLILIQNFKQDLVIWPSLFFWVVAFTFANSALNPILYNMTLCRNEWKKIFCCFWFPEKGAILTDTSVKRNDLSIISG
Procedure, shortened: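 Agonist EC50 came from a four-parameter fit of RFU (Fmax−Fmin) read over 300 s on FLIPR. Cells were HEK293 stably transfected with human GPR120 (NM_001195755.1) at 4200 per well, serum-starved 1 h and loaded with Fluo-4 NW dye with probenecid before ligand addition.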

human GPR40 = biological target: T2, human GPR40 (Homo sapiens, UniProt O14842); test: GPR40 calcium flux assay, human GPR40; assay type: cell-based; conditions: HEK293 cells stably expressing GPR40; table does not say human or rat
T2 construct: expressed in transfected cells
T2 sequence (O14842 whole entry): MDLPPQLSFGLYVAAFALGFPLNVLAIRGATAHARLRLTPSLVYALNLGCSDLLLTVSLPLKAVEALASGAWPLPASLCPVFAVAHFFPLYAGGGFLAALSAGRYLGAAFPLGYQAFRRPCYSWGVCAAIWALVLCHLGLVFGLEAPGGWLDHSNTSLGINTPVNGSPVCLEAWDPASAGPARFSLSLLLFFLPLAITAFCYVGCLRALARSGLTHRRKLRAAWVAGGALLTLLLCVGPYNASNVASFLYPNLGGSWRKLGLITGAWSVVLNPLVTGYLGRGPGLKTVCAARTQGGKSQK
Procedure, shortened: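 Cells preincubated 1 h at 37° C. in HBSS, 20 mM HEPES, 0.1% BSA, then Fluo 8 calcium dye 30 min at 37° C. and 15 min at room temperature.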

Structure (SMILES)	EC50 (Human GPR120 short form)	EC50 (human GPR40)
Cc1cc(OCC2=C(c3ccc(Cl)cc3)C(C)CC2)c(F)cc1CCC(=O)O (stereo not drawn) [Compound 317, 3-[4-[[2-(4-chlorophenyl)-3-methyl-cyclopenten-1-yl]methoxy]-5-fluoro-2-methyl-phenyl]Propanoic Acid]	866 nM	746 nM
O=C(O)CCc1ccc(OCC2=C(Cc3ccccc3)CCC2)cc1C(F)(F)F [Compound 319, 3-[4-[(2-benzylcyclopenten-1-yl)methoxy]-2-(trifluoromethyl)phenyl]Propanoic Acid]	623 nM	55 nM
CC1CCC(COc2ccc(CCC(=O)O)c(Cl)c2)=C1c1ccccc1 (stereo not drawn) [Compound 320, 3-[2-chloro-4-[(3-methyl-2-phenyl-cyclopenten-1-yl)methoxy]phenyl]Propanoic Acid]	998 nM	543 nM
CC1CCC(COc2ccc(CCC(=O)O)cc2)=C1c1ccccc1 (stereo not drawn) [Compound 321, 3-[4-[(3-methyl-2-phenyl-cyclopenten-1-yl)methoxy]phenyl]Propanoic Acid]	733 nM	2640 nM
O=C(O)CCc1ccc(OCC2=C(Cc3ccccc3)CCC2)cc1 [Compound 322, 3-[4-[(2-benzylcyclopenten-1-yl)methoxy]phenyl]Propanoic Acid]	1140 nM	328 nM
Cc1cc(OCC2=C(c3ccccc3)C(C)CC2)c(F)cc1CCC(=O)O (stereo not drawn) [Compound 323, 3-[5-fluoro-2-methyl-4-[(3-methyl-2-phenyl-cyclopenten-1-yl)methoxy]phenyl]Propanoic Acid]	1070 nM	2230 nM
Cc1cc(OCC2=C(c3ccc(OC(F)(F)F)cc3)CCC2)c(F)cc1CCC(=O)O [Compound 325, 3-[5-fluoro-2-methyl-4-[[2-[4-(trifluoromethoxy)phenyl]cyclopenten-1-yl]methoxy]phenyl]Propanoic Acid]	> 5000 nM	2770 nM
Cc1ccc(C2=C(COc3cc(C)c(CCC(=O)O)cc3F)CCC2)cc1 [Compound 326, 3-[5-fluoro-2-methyl-4-[[2-(p-tolyl)cyclopenten-1-yl]methoxy]phenyl]Propanoic Acid]	157 nM	4780 nM
CC1CCC(COc2ccc(CCC(=O)O)c(Cl)c2)=C1c1ccc(Cl)cc1 (stereo not drawn) [Compound 327, 3-[2-chloro-4-[[2-(4-chlorophenyl)-3-methyl-cyclopenten-1-yl]methoxy]phenyl]Propanoic Acid]	983 nM	205 nM
CC1CCC(COc2ccc(CCC(=O)O)cc2)=C1c1ccc(Cl)cc1 (stereo not drawn) [Compound 328, 3-[4-[[2-(4-chlorophenyl)-3-methyl-cyclopenten-1-yl]methoxy]phenyl]Propanoic Acid]	307 nM	639 nM
O=C(O)CCc1ccc(OCC2=C(Cc3ccccc3)CCC2)cc1Cl [Compound 329, 3-[4-[(2-benzylcyclopenten-1-yl)methoxy]-2-chloro-phenyl]Propanoic Acid]	1600 nM	101 nM
O=C(O)CCc1cc(F)c(OCC2=C(Cc3ccccc3)CCC2)c(F)c1 [Compound 330, 3-[4-[(2-benzylcyclopenten-1-yl)methoxy]-3,5-difluoro-phenyl]Propanoic Acid]	492 nM	> 5000 nM
Cc1ccc(C2=C(COc3ccc(CCC(=O)O)c(C(F)(F)F)c3)CCC2)c(C(C)C)c1 [Compound 331, 3-[4-[[2-(2-isopropyl-4-methyl-phenyl)cyclopenten-1-yl]methoxy]-2-(trifluoromethyl)phenyl]Propanoic Acid]	> 5000 nM	3340 nM
CC1CCC(c2ccc(Cl)cc2)=C1COc1ccc(CCC(=O)O)cc1 (stereo not drawn) [Compound 332, 3-[4-[[2-(4-chlorophenyl)-5-methyl-cyclopenten-1-yl]methoxy]phenyl]Propanoic Acid]	191 nM	1300 nM
Cc1cc(OCC2=C(c3ccc(Cl)cc3)CCC2C)c(F)cc1CCC(=O)O (stereo not drawn) [Compound 333, 3-[4-[[2-(4-chlorophenyl)-5-methyl-cyclopenten-1-yl]methoxy]-5-fluoro-2-methyl-phenyl]Propanoic Acid]	427 nM	1010 nM
CC1CCC(c2ccccc2)=C1COc1ccc(CCC(=O)O)c(Cl)c1 (stereo not drawn) [Compound 334, 3-[2-chloro-4-[(5-methyl-2-phenyl-cyclopenten-1-yl)methoxy]phenyl]Propanoic Acid]	1730 nM	2130 nM
CC1CCC(c2ccc(Cl)cc2)=C1COc1ccc(CCC(=O)O)c(C(F)(F)F)c1 (stereo not drawn) [Compound 336, 3-[4-[[2-(4-chlorophenyl)-5-methyl-cyclopenten-1-yl]methoxy]-2-(trifluoromethyl)phenyl]Propanoic Acid]	562 nM	428 nM

Structure (SMILES)	EC50 (Human GPR120 short form)	EC50 (human GPR40)
CC1CCC(c2ccc(Cl)cc2)=C1COc1ccc(CCC(=O)O)c(Cl)c1 (stereo not drawn) [Compound 337, 3-[2-chloro-4-[[2-(4-chlorophenyl)-5-methyl-cyclopenten-1-yl]methoxy]phenyl]Propanoic Acid]	336 nM	519 nM
Cc1cc(OCC2=C(c3ccccc3)CCC2C)c(F)cc1CCC(=O)O (stereo not drawn) [Compound 338, 3-[5-fluoro-2-methyl-4-[(5-methyl-2-phenyl-cyclopenten-1-yl)methoxy]phenyl]Propanoic Acid]	725 nM	2860 nM
Cc1cc(OCC2=C(c3cc(Cl)ccc3F)CCC2)c(F)cc1CCC(=O)O [Compound 339, 3-[4-[[2-(5-chloro-2-fluoro-phenyl)cyclopenten-1-yl]methoxy]-5-fluoro-2-methyl-phenyl]Propanoic Acid]	803 nM	356 nM
Cc1ccc(F)c(C2=C(COc3cc(C)c(CCC(=O)O)cc3F)CCC2)c1 [Compound 340, 3-[5-fluoro-4-[[2-(2-fluoro-5-methyl-phenyl)cyclopenten-1-yl]methoxy]-2-methyl-phenyl]Propanoic Acid]	743 nM	944 nM
Cc1ccc(F)c(C2=C(COc3ccc(CCC(=O)O)c(C(F)(F)F)c3)CCC2)c1 [Compound 341, 3-[4-[[2-(2-fluoro-5-methyl-phenyl)cyclopenten-1-yl]methoxy]-2-(trifluoromethyl)phenyl]Propanoic Acid]	447 nM	281 nM
O=C(O)CCc1ccc(OCC2=C(c3cc(Cl)ccc3F)CCC2)cc1Cl [Compound 342, 3-[2-chloro-4-[[2-(5-chloro-2-fluoro-phenyl)cyclopenten-1-yl]methoxy]phenyl]Propanoic Acid]	515 nM	322 nM
Cc1ccc(F)c(C2=C(COc3ccc(CCC(=O)O)c(Cl)c3)CCC2)c1 [Compound 343, 3-[2-chloro-4-[[2-(2-fluoro-5-methyl-phenyl)cyclopenten-1-yl]methoxy]phenyl]Propanoic Acid]	1380 nM	1100 nM
O=C(O)CCc1ccc(OCC2=C(c3cc(Cl)ccc3F)CCC2)cc1C(F)(F)F [Compound 344, 3-[4-[[2-(5-chloro-2-fluoro-phenyl)cyclopenten-1-yl]methoxy]-2-(trifluoromethyl)phenyl]Propanoic Acid]	520 nM	137 nM
Cc1ccc(CC2=C(COc3ccc(CCC(=O)O)c(C(F)(F)F)c3)CCC2)cc1 [Compound 345, 3-[4-[[2-(p-tolylmethyl)cyclopenten-1-yl]methoxy]-2-(trifluoromethyl)phenyl]Propanoic Acid]	3020 nM	67 nM
Cc1ccc(CC2=C(COc3ccc(CCC(=O)O)cc3)CCC2)cc1 [Compound 346, 3-[4-[[2-(p-tolylmethyl)cyclopenten-1-yl]methoxy]phenyl]Propanoic Acid]	1300 nM	228 nM
Cc1ccc(CC2=C(COc3cc(C)c(CCC(=O)O)cc3F)CCC2)cc1 [Compound 347, 3-[5-fluoro-2-methyl-4-[[2-(p-tolylmethyl)cyclopenten-1-yl]methoxy]phenyl]Propanoic Acid]	1800 nM	897 nM
Cc1ccc(CC2=C(COc3ccc(CCC(=O)O)c(Cl)c3)CCC2)cc1 [Compound 348, 3-[2-chloro-4-[[2-(p-tolylmethyl)cyclopenten-1-yl]methoxy]phenyl]Propanoic Acid]	2360 nM	57 nM
O=C(O)CCc1ccc(OCC2=C(Cc3ccc(F)cc3)CCC2)cc1Cl [Compound 349, 3-[2-chloro-4-[[2-[(4-fluorophenyl)methyl]cyclopenten-1-yl]methoxy]phenyl]Propanoic Acid]	1900 nM	60 nM
Cc1cc(OCC2=C(Cc3ccc(F)cc3)CCC2)c(F)cc1CCC(=O)O [Compound 350, 3-[5-fluoro-4-[[2-[(4-fluorophenyl)methyl]cyclopenten-1-yl]methoxy]-2-methyl-phenyl]Propanoic Acid]	1770 nM	669 nM
O=C(O)CCc1ccc(OCC2=C(C3CC3)CCC2)cc1C(F)(F)F [Compound 351, 3-[4-[(2-cyclopropylcyclopenten-1-yl)methoxy]-2-(trifluoromethyl)phenyl]Propanoic Acid]	> 5000 nM	1230 nM
Cc1cc(OCC2=C(C3=CCCCC3)CCC2)c(F)cc1CCC(=O)O [Compound 352, 3-[4-[[2-(cyclohexen-1-yl)cyclopenten-1-yl]methoxy]-5-fluoro-2-methyl-phenyl]Propanoic Acid]	> 5000 nM	> 10000 nM
